Test systems include Citrobacter sp.; Klebsiella pneumoniae; Streptococcus pneumoniae; Staphylococcus aureus; Enterobacter cloacae; Candida albicans; Bacillus subtilis; Salmonella typhimurium; Serratia marcescens; Cryptococcus neoformans; Bacillus subtilis SMY; Saccharomyces cerevisiae; Streptococcus mutans; Pseudomonas putida; Escherichia coli; Enterococcus faecalis; Acinetobacter baumannii; Shigella boydii; Proteus mirabilis; Morganella morganii; Streptococcus agalactiae; Streptococcus pyogenes; Vibrio cholerae PL91.

Assay in all cases: ≥ marks a high value that may be exact or a test limit, other limits are often not marked, values filed in µg/mL are converted to µM
Test [1] relates to Escherichia coli ATCC 25922.
Test [2] relates to Acinetobacter baumannii ATCC 15308.
Test [3] has as its system Staphylococcus aureus ATCC 25923.
In test [4] the test system is Pseudomonas aeruginosa ATCC 15442.
Test [5] concerns Escherichia coli ATCC 23716.
Test [6] deals with Staphylococcus aureus NBRC 12732.
Test [7] deals with Pseudomonas aeruginosa ATCC 27853.
Test [8] relates to Candida albicans ATCC 90112.
In test [9] the test system is Stenotrophomonas maltophilia ATCC 13637.
Test [10] concerns Micrococcus luteus ATCC 10240.
In test [11] the test system is Micrococcus luteus NBRC 12708.
In test [12] the test system is Saccharomyces cerevisiae NBRC 10217.
In test [13] the test system is Escherichia coli NBRC 14237.
Test [14] relates to Bacillus subtilis ATCC 6633.
Test [15] concerns Escherichia coli NCLM 2064.
Test [16] concerns Pseudomonas aeruginosa ATCC 10145.
In test [17] the test system is Bacillus cereus NCLM 2156.
Test [18] has as its system Staphylococcus aureus ATCC 29213.
In test [19] the test system is Bacillus cereus ATCC 11778.
Test [20] deals with Klebsiella pneumoniae ATCC 700603.
Test [21] relates to Serratia marcescens ATCC 21202.
For test [22], the system named is Salmonella enterica subsp. enterica serovar Enteritidis ATCC 13076.
Test [23] has as its system Streptococcus pyogenes ATCC 19615.

≈ marks a conversion by molar mass, not a printed value.

Turning to `CC[C@H](C)[C@H](NC(=O)[C@H](CC(C)C)NC(=O)CNC(=O)CNC(=O)[C@H](CC(C)C)NC(=O)[C@@H](N)Cc1ccccc1)C(=O)N[C@@H](CCCCN)C(=O)N1CCC[C@H]1C(=O)N[C@@H](Cc1c[nH]c2ccccc12)C(=O)N[C@@H](Cc1c[nH]c2ccccc12)C(=O)N1CCC[C@H]1C(=O)N[C@@H](Cc1c[nH]c2ccccc12)C(=O)N[C@@H](CCCN=C(N)N)C(=O)N[C@@H](CCCN=C(N)N)C(N)=O` [FLGGLIKPWWPWRR], the MIC in test [1] is 17.2 µM (≈ 31.2 µg/mL); in [2], at least 69 µM; against Citrobacter sp., at least 138 µM; against Klebsiella pneumoniae, over 138 µM; in the test on Streptococcus pneumoniae, 17.2 µM (≈ 31.2 µg/mL); in the test with Staphylococcus aureus, 17.2 µM (≈ 31.2 µg/mL). Further, the MIC is 17.2 µM (≈ 31.2 µg/mL) in test [3], at least 138 µM against Enterobacter cloacae and at least 34.5 µM in test [4].

Turning to `CC(C)C[C@H](NC(=O)[C@H](CC(C)C)NC(=O)[C@H](CCCN=C(N)N)NC(=O)[C@H](Cc1cnc[nH]1)NC(=O)[C@@H](NC(=O)[C@H](CCCN=C(N)N)NC(=O)CNC(=O)[C@@H](NC(=O)[C@@H]1CCCN1C(=O)[C@@H](N)Cc1ccccc1)C(C)C)C(C)C)C(=O)N[C@@H](CCCN=C(N)N)C(=O)N[C@@H](CCCCN)C(=O)O` [FPVGRVHRLLRK], the MIC against Candida albicans was 21.7 µM (≈ 32 µg/mL); against Bacillus subtilis it was 21.7 µM (≈ 32 µg/mL); in the test with Salmonella typhimurium it was 10.8 µM (≈ 16 µg/mL); against Serratia marcescens, 21.7 µM (≈ 32 µg/mL); against Cryptococcus neoformans, at least 43.3 µM; in test [5], at least 173 µM. The MIC against Streptococcus pneumoniae is 21.7 µM (≈ 32 µg/mL); against Bacillus subtilis SMY, at least 173 µM; in the test with Staphylococcus aureus, 21.7 µM (≈ 32 µg/mL); against Saccharomyces cerevisiae, at least 43.3 µM; in the test with Streptococcus mutans it was 21.7 µM (≈ 32 µg/mL); against Pseudomonas putida it was at least 43.3 µM. Further, in the test on Escherichia coli, the MIC worked out at 21.7 µM (≈ 32 µg/mL).

Take `CC[C@H](C)[C@H](NC(=O)[C@H](CC(C)C)NC(=O)[C@@H]1CCCN1C(=O)[C@H](CC(C)C)NC(=O)[C@H](CCCCN)NC(=O)[C@H](CCCCN)NC(=O)[C@H](CC(C)C)NC(=O)[C@H](CC(C)C)NC(=O)[C@H](C)NC(=O)[C@@H](NC(=O)[C@H](Cc1ccccc1)NC(=O)CN)C(C)C)C(=O)N[C@@H](CC(C)C)C(=O)N[C@@H](CCCCN)C(=O)N[C@@H](Cc1cnc[nH]1)C(=O)N[C@@H](CC(C)C)C(=O)N[C@@H](Cc1cnc[nH]1)C(N)=O` [GFVALLKKLPLILKHLH]: the MIC was 1.57 µM (≈ 3.05 µg/mL) in test [6]; 15 µM (≈ 29.1 µg/mL) against Enterococcus faecalis; 3.75 µM (≈ 7.27 µg/mL) in the test on Acinetobacter baumannii; 7.5 µM (≈ 14.5 µg/mL) in test [7]; 7.5 µM (≈ 14.5 µg/mL) in [8]; 3.75 µM (≈ 7.27 µg/mL) in test [1]. The MIC is 3.75 µM (≈ 7.27 µg/mL) in [9]; 3.75 µM (≈ 7.27 µg/mL) in the test on Shigella boydii; 1.9 µM (≈ 3.69 µg/mL) in [10]; 7.5 µM (≈ 14.5 µg/mL) in the test with Serratia marcescens; 3.75 µM (≈ 7.27 µg/mL) against Klebsiella pneumoniae; 30 µM (≈ 58.2 µg/mL) against Proteus mirabilis. For the same molecule, the MIC against Morganella morganii came out at 30 µM (≈ 58.2 µg/mL); against Saccharomyces cerevisiae, 3.75 µM (≈ 7.27 µg/mL); in test [3], 15 µM (≈ 29.1 µg/mL); in the test on Enterobacter cloacae, 7.5 µM (≈ 14.5 µg/mL); in test [11], 3.12 µM (≈ 6.05 µg/mL); in the test with Streptococcus agalactiae, 3.75 µM (≈ 7.27 µg/mL). Also, the MIC in test [12] is 6.25 µM (≈ 12.1 µg/mL); in test [13] it was 3.12 µM (≈ 6.05 µg/mL); in [14] it was 3.75 µM (≈ 7.27 µg/mL); against Streptococcus pyogenes it was 3.75 µM (≈ 7.27 µg/mL).

Take `CC[C@H](C)[C@H](NC(=O)CN)C(=O)NCC(=O)N[C@@H](CO)C(=O)N[C@@H](CCSC)C(=O)N[C@@H](CC(C)C)C(=O)N[C@@H](CC(C)C)C(=O)NCC(=O)N[C@@H](CC(C)C)C(=O)N[C@@H](C)C(=O)N[C@@H](CCCCN)C(=O)N[C@@H](CC(N)=O)C(=O)N[C@H](C(=O)NCC(=O)N[C@@H](CCSC)C(=O)N[C@@H](CO)C(=O)N[C@@H](CC(C)C)C(=O)N[C@@H](CC(C)C)C(=O)N[C@@H](CC(N)=O)C(=O)N[C@@H](CCCCN)C(=O)N[C@@H](C)C(=O)N[C@@H](CCC(N)=O)C(=O)N[C@H]1CSSC[C@@H](C(=O)O)NC(=O)[C@H](CCCCN)NC(=O)CNC(=O)[C@H](CO)NC(=O)[C@H]([C@@H](C)CC)NC(=O)[C@H](CCCCN)NC1=O)C(C)C` [GIGSMLLGLAKNVGMSLLNKAQCKISGKC]: the MIC in test [15] was 13.6 µM (≈ 40 µg/mL); with Vibrio cholerae PL91, at least 51.1 µM; in [16], at least 34.1 µM; in test [17], at least 51.1 µM; in test [3], over 51.1 µM.

Turning to `CC(C)C[C@H](NC(=O)[C@H](CC(C)C)NC(=O)[C@H](CC(=O)O)NC(=O)[C@H](CC(N)=O)NC(=O)[C@H](CC(C)C)NC(=O)[C@H](CC(C)C)NC(=O)[C@H](CC(N)=O)NC(=O)CNC(=O)[C@@H](NC(=O)[C@H](CC(C)C)NC(=O)[C@@H]1CCCN1C(=O)[C@H](CC(C)C)NC(=O)[C@@H](N)C(C)C)C(C)C)C(=O)NCC(=O)N[C@@H](CCCCN)C(=O)O` [VLPLVGNLLNDLLGK], the MIC in [18] is over 63.4 µM; in test [19], at least 63.4 µM; in test [7] it was over 63.4 µM; in test [1] it was over 63.4 µM; in test [20], over 63.4 µM; in test [21], at least 63.4 µM. The MIC in test [22] and in test [23] was at least 63.4 µM throughout.

A word on the MIC: it is the least concentration at which growth counts as inhibited.
